Assay results taken from patent US20140287024A1, “NANOPARTICLE-BASED DELIVERY SYSTEM WITH OXIDIZED PHOSPHOLIPIDS AS TARGETING LIGANDS FOR THE PREVENTION, DIAGNOSIS AND TREATMENT OF ATHEROSCLEROSIS” (priority 2013, published 2014).

Assays:
macrophage CD36 = macrophage CD36 (Homo sapiens, UniProt P16671); details: cited from earlier work
MCF7 breast cancer cells = test: Antiproliferative and proapoptotic effects in MCF7 cells; format: cell-based, human; details: at 10 μM or lower
Text: The chemopreventive actions exerted by green tea are thought to be due to its major polyphenol, (−)-epigallocatechin-3-gallate (EGCG). However, the low level of stability and bioavailability in the body makes administering EGCG at chemopreventive doses unrealistic. EGCG encapsulated chitosan-coated nanoliposomes (CSLIPO-EGCG) were synthesized, and their antiproliferative and proapoptotic effects in MCF7 breast cancer cells were observed.

[1] = Stability of NLCE, CSNLCE and native EGCG in PBS at different pH and temperatures (HPLC); format: physicochemical
Method: EGCG was detected using a high-performance liquid chromatography (HPLC) system (Waters Corporation, Milford, Mass.) with a UV detector and a ZORBAX SB-C18.5 μm, 150*4.6 mm (Agilent,). The mobile phase was composed of 86% water, 12% acetonitrile, 2% ethyl acetate and 0.043% sulfuric acid, and the flow rate was 1 ml/minute. EGCG was detected at 254 nm.
To determine the stability of NLCE, CSNLCE and native EGCG in a pH range 1-7.4, Hydrochloric acid was added into 200 mM phosphate buffered saline to obtain four different pH solutions (pH=1, 3, 5, 7.4). All samples were then dissolved in these solutions to obtain a final EGCG concentration of 100 μM. The solutions were stored in tightly closed vials and incubated in a 37° C. water bath. EGCG concentrations were measured at 0 h, 0.5 h, 1 h, 1.5 h, 2 h, 2.5 hand 3 h.
[…] To simulate the cell growth, stability was evaluated in the cell culture medium RPMI1640 at 37° C. with or without cells, and with or without superoxide dismutases (SOD, 5 U/ml).

[2] = Stability of EGCG in cell culture medium RPMI1640 at 37° C.; format: physicochemical; details: after 1 h incubation
Method: To determine the stability in different temperatures, NLCE, CSNLCE and native EGCG containing 100 μM of EGCG were dissolved in 1×PBS solution (pH 7.4) and incubated at 4° C., 22° C. and 37° C. for 14 d, 19 h and 3 h, respectively. To simulate the cell growth, stability was evaluated in the cell culture medium RPMI1640 at 37° C. with or without cells, and with or without superoxide dismutases (SOD, 5 U/ml).

[3] = system: THP-1 derived macrophages; test: EGCG content in THP-1 derived macrophages; format: cell-based, human; details: 100 μM
Method: Human monocytic THP-1 cell line was purchased from the American Type Tissue Culture Collection (ATCC, Rockville, Md.) and grew in a complete medium according to ATCC instructions. The complete medium consisted of RPMI medium supplemented with 10% fetal bovine serum and 0.05 mM of 2-mercaptoethanol. The cells were incubated in a 5% CO2 atmosphere at 37° C. THP-1 cells were differentiated into macrophages by incubating them with the complete medium containing 50 ng/ml PMA for 72 h.
Macrophages derived from THP-1 cells were treated with 100 μM of NLCE, CSNLCE and native EGCG in the complete medium with or without SOD (5 U/ml). After 2 or 4 h incubation at 4° C. or 37° C., cells were washed three times with ice-cold 1×PBS. The attached cells were scraped by 200 μl of 2% ascorbic acid (pH 3) and each well was washed with 200 μl of methanol, which was then combined with 2% ascorbic acid as a mixture. The volume of mixture was measured and internal standard epicatechin was added into the mixture. After one cycle of freezing and thawing, mixtures were sonicated for 2 min in an ice-cold bath using a sonicator (Branson, Inc.). The mixture was centrifuged at 10,000×g for 20 min at 4° C. The clear supernatant solution was collected and injected into the HPLC system. Precipitates were washed with 0.5 ml of deionized water to get rid of acid and dried in the chemical hood overnight. The dried cells were digested by 0.5 N NaOH. Total cellular protein levels were determined by using a bicinchoninic acid (BCA) kit (Pierce, Cramlington). Total cellular uptake was expressed as μg of EGCG per mg of protein.

[4] = cited from earlier work
[5] = system: cuff-induced evolving atherosclerotic lesion; details: apolipoprotein E null mice, daily intraperitoneal 10 mg/kg body weight, after 21 days treatment; cited from earlier work
[6] = system: macrophages and macrophage-derived foam cells; details: in vitro; cited from earlier work
[7] = in vitro; cited from earlier work

Sequence of macrophage CD36 (P16671 whole entry): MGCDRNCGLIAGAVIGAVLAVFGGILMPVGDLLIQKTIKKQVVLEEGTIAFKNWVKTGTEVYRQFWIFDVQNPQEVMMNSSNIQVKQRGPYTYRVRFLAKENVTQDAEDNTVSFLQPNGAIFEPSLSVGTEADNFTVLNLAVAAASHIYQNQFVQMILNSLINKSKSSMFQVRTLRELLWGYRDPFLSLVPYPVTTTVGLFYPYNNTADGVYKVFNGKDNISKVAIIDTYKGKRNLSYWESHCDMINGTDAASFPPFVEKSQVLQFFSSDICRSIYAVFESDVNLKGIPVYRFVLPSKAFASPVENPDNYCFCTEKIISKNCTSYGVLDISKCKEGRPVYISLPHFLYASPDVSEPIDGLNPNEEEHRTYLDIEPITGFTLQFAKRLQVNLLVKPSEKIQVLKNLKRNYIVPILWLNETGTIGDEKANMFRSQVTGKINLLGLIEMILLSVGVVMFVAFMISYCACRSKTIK

Q: With “1-Palmitoyl-2-(11-carboxy-9-oxoundec-10-enoyl)-sn-glycero-3-phosphatidylcholine [KDdiA-PC]” as the compound, how does the “CD36 binding affinity conferred, relative potency” value (macrophage CD36) read?
A: Its value is “more potently than any hydroperoxy phospholipid species”.

Q: What about the “binding affinity to macrophage CD36” value (macrophage CD36) of the same compound?
A: Its value is “high binding affinity”.

Q: Which “antiproliferative and proapoptotic effectiveness” value (MCF7 breast cancer cells) does the source give for `O=C(O[C@@H]1Cc2c(O)cc(O)cc2O[C@@H]1c1cc(O)c(O)c(O)c1)c1cc(O)c(O)c(O)c1` [EGCG, (−)-epigallocatechin-3-gallate] here?
A: Its value is “doesn't have any beneficial effects”.

Q: What about the EGCG left ([1]; 100 μM, 1×PBS pH 7.4, 37° C., after 3 h) of the same compound?
A: The EGCG left was “completely degraded”.

Q: What about the “stability in acidic pH” value ([1]; 100 μM, pH 1.0 to 5.0, 37° C., 3 h) of the same compound?
A: Its value is “stable”.

Q: What about the “stability in neutral pH” value ([1]; 100 μM, pH 7.4, 37° C., after 3 h) of the same compound?
A: The value was “not stable and could not be detected”.

Q: What about the EGCG degraded ([1]; 4° C., after 19 hours, same initial concentration) of the same compound?
A: The EGCG degraded was 91%.

Q: And the EGCG left ([1]; after incubating for 8 h at 23° C.)?
A: The EGCG left was 1.52%.

Q: What about the “order of stability of EGCG at the same pH” value ([1]; in all conditions) of the same compound?
A: Its value is “CSNLCE>NLCE>native EGCG”.

Q: And the EGCG left [2]?
A: The EGCG left was 3.7%.

Q: And the “EGCG content in macrophages” value ([3]; complete medium containing 5 U/ml of SOD, 2 h incubation at 37° C.)?
A: Its value is 0.098 μg/mg protein.

Q: What about the “EGCG content in THP-1 derived macrophages” value ([3]; complete medium without SOD, 2 h incubation at 37° C.) of the same compound?
A: Its value is 0.031 μg/mg protein.

Q: And the “EGCG content in macrophages” value ([3]; in the presence of SOD, after 4 h)?
A: The value was 0.109 μg/mg protein.

Q: What about the “peak plasma EGCG concentration” value ([4]; after drinking 2 cups of green tea) of the same compound?
A: Its value is 0.15 µM.

Q: And the absolute oral bioavailability ([4]; after drinking tea containing catechins at 10 mg/kg body weight, humans and research animals)?
A: The absolute oral bioavailability was “about 0.1%”.

Q: What about the “reduction of atherosclerotic lesion size” value [5] of the same compound?
A: Its value is 55%.

Q: What about the “apoptosis of macrophages and macrophage-derived foam cells” value [6] of the same compound?
A: Its value is “induce apoptosis”.

Q: And the “expression and production of inflammatory factors” value [6]?
A: Its value is “inhibit”.

Q: And the “stability in water and physiological fluid” value [7]?
A: The value was “unstable”.

Q: For “5-keto-6-octendioic acid esters of 2-lyso-PC [KOdiA-PC]”, which “binding affinity to macrophage CD36” value (macrophage CD36) is on record?
A: The value was “high binding affinity”.
